Laboratory results: patent publication US20250368648A1, “MULTI-CYCLIC IRAK AND FLT3 INHIBITING COMPOUNDS AND USES THEREOF” (CHILDREN'S HOSPITAL MEDICAL CENTER, priority 2022, published 2025)
Where two headings read alike, the source gives them in different places.

Legend:
IRAK4 = target: T1, IRAK4 (Homo sapiens, UniProt Q9NWZ3); experiment: RBC HotSpot Kinase Assay, IRAK4; format: biochemical; parameters: purchased RBC (Reaction Biology) HotSpot assay; conditions: HotSpot functional assay, isolated kinase enzyme, 33P-ATP
T1 sequence (Q9NWZ3 1-460): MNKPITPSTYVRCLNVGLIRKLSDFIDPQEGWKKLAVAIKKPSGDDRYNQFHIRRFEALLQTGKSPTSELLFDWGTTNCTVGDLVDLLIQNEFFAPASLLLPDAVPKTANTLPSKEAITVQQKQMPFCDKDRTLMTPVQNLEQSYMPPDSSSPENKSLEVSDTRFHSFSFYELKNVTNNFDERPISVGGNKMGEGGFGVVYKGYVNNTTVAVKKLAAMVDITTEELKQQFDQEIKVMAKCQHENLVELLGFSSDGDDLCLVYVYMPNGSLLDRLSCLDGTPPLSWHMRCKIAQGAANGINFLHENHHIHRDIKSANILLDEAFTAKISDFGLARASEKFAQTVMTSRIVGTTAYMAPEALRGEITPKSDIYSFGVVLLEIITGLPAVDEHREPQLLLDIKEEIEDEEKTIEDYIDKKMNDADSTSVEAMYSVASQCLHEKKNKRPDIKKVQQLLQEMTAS
Outline: (§1)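 Isolated kinases, possibly truncated or lacking regulatory receptor regions, were preincubated with compound for 20 min at room temp in 20 mM Hepes pH 7.5, 10 mM MgCl2, 1 mM EGTA, 2 mM DTT, 1% DMSO. Reactions were started with ^33P-ATP and run 2 h at room temperature; activity was read by P81 filter binding.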

IRAK1 = target: T2, IRAK1 (Homo sapiens, UniProt P51617); experiment: RBC HotSpot Kinase Assay, IRAK1; format: biochemical; conditions: HotSpot functional assay, isolated kinase enzyme, 33P-ATP
T2 construct: purchased RBC (Reaction Biology) HotSpot assay
T2 sequence (P51617 whole entry): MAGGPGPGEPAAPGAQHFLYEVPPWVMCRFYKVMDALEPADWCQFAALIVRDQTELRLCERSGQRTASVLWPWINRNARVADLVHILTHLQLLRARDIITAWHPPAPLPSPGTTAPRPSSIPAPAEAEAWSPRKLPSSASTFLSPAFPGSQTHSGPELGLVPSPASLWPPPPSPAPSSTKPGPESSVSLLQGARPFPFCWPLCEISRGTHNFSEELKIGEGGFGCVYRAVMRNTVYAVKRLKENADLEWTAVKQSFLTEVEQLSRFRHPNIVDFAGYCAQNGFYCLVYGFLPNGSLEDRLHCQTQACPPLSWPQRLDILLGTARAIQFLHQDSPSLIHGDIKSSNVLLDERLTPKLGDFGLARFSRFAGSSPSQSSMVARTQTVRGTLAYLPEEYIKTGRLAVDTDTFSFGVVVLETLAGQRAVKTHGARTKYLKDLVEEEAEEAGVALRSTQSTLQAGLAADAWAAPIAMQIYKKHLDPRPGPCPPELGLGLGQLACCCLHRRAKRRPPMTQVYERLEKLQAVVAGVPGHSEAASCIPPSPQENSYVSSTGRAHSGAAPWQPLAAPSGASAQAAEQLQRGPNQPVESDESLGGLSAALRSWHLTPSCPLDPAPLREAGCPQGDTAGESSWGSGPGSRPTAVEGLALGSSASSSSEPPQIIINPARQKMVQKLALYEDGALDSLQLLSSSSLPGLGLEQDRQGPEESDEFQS
Outline: as §1

MOLM14 D835Y cells = experiment: MOLM14 D835Y cell viability assay (Cell Titer Glo); format: cell-based; conditions: Homo sapiens, MOLM-14, 48 h
Procedure: The cell line has activated FLT3 receptors which carry additional resistance mutations in the kinase domain (D835Y).
MOLM14 D835Y cells were grown in RPMI-1640 media supplemented with 20% fetal bovine serum (FBS). […] After cell addition, 23 nL of test compound were transferred into individual wells (22 doses tested for each test compound, with a 1:2 dilution series starting at 10 μM) via a 1536 pin-tool. Bortezomib (final concentration 2.3 μM) was used as a positive control for cell cytotoxicity.

FLT3 = target: T3, FLT3 (Homo sapiens, UniProt P36888); experiment: RBC HotSpot Kinase Assay, FLT3; format: biochemical; parameters: purchased RBC (Reaction Biology) HotSpot assay; conditions: HotSpot functional assay, isolated kinase enzyme, 33P-ATP
T3 sequence (P36888 27-993): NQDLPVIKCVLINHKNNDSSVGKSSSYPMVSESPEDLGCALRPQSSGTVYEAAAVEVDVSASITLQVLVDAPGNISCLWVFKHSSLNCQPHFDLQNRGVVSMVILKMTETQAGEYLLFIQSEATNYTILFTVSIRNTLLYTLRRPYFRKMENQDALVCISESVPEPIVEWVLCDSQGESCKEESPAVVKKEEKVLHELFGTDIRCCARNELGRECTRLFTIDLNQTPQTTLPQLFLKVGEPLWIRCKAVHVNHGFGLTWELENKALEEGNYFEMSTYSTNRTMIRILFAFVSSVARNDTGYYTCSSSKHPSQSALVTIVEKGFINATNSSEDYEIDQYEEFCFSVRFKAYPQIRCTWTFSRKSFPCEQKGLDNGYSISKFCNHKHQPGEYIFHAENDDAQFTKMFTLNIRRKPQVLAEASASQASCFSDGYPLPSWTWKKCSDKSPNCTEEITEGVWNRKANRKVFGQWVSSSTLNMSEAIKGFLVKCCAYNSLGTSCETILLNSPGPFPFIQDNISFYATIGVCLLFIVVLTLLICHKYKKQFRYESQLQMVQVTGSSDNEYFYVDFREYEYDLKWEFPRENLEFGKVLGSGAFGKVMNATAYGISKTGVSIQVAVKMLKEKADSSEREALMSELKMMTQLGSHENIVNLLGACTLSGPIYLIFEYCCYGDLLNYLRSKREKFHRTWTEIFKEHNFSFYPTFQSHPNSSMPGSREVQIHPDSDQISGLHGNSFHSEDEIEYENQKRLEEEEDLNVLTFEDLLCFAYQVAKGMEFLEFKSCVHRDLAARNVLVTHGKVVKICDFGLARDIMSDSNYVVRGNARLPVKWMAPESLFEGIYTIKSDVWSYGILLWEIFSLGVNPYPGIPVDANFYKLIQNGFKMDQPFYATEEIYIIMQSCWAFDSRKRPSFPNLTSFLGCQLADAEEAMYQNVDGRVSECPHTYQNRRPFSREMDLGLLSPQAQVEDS
Outline: as §1

NF-κB = experiment: NF-kB assay in THP-1-Blue NF-κB cells (SEAP reporter); format: cell-based
Procedure: THP-1-Blue NF-κB cells (InvivoGen) carrying a stable integrated NF-κB-inducible secreted embryonic alkaline phosphatase (SEAP) reporter construct were plated at a concentration of 1×10^5 cells per well. The cells were stimulated with Pam3CSK4 (1 ng/mL) or hIL1B (Ing/mL). After 10-20 minutes, the cells were then treated with vehicle (DMSO) or serial dilutions of the test compounds (10 doses tested for each test compound, with a 1:10 dilution series starting at 1 μM or 3 μM) with a final volume of 200 μL for 24 hours at 37° C. After 24 hours, the cells were centrifuged and 20 IL supernatant was incubated with 180 μL QUANTI-Blue reagent at 37° C. for 30-60 minutes. The levels of NF-κB-induced was measured in a microplate reader at 620 nm.

[1] = system: MOLM14-FLT3-ITD (D835Y) AML cells; experiment: Caspase-Glo 3/7 apoptosis assay, time course; format: cell-based; conditions: 4.12 nM added to dose level 7 of Compound 106 with dose level 7 of venetoclax
[2] = THP-1-Blue NF-κB cells stimulated with Pam3CSK4, 24 hours, read-out: NF-κB Pam3SCK4 IC50
[3] = THP-1-Blue NF-κB cells stimulated with hIL1B, 24 hours, read-out: NF-κB IL1B IC50

Structure (SMILES)	IC50 (IRAK4) [nM]	IC50 (IRAK1) [nM]	IC50 (MOLM14 D835Y cells) [nM]	IC50 (FLT3) [nM]	IC50 (NF-κB; [2]) [nM]	IC50 (NF-κB; [3]) [nM]	benefit of a third agent added to Compound 106 with venetoclax (apoptosis) [1]
COc1cc2ncc(-c3ccc(F)c(N[C@H]4CNC[C@@H]4F)n3)n2nc1C1CC1 [Compound 46a, 6-(6-cyclopropyl-7-methoxyimidazo[1,2-b]pyridazin-3-yl)-3-fluoro-N-((3S,4S)-4-fluoropyrrolidin-3-yl)pyridin-2-amine]	< 0.5	12	115	< 0.5	59	72	
Nc1ncn([C@@H]2O[C@H](CO)[C@@H](O)[C@H]2O)c(=O)n1 [Compound 5-azacitdine, 5-azacitdine, reference compound]							little to no additional benefit
COc1cc2ncc(-c3nc(N[C@H]4CNC[C@@H]4F)ccc3F)n2nc1C1CC1 [Compound 45a, 6-(6-cyclopropyl-7-methoxyimidazo[1,2-b]pyridazin-3-yl)-5-fluoro-N-((3S,4S)-4-fluoropyrrolidin-3-yl)pyridin-2-amine]	< 0.5	37	20	< 0.5	44	45	
COc1cc2ncc(-c3nc(N[C@H]4CNC[C@@H]4F)c(F)cc3F)n2nc1C1COC1 [Compound 71a, 3,5-difluoro-N-((3S,4S)-4-fluoropyrrolidin-3-yl)-6-(7-methoxy-6-(oxetan-3-yl)imidazo[1,2-b]pyridazin-3-yl)pyridin-2-amine]	1	50		< 0.5	80	97	
COc1cc2ncc(-c3nc(N[C@H]4CNCC[C@@H]4F)ccc3F)n2nc1C1CC1 [Compound 47a, 6-(6-cyclopropyl-7-methoxyimidazo[1,2-b]pyridazin-3-yl)-5-fluoro-N-((3S,4S)-4-fluoropiperidin-3-yl)pyridin-2-amine]	< 0.5	6	4	< 0.5	45	95	
COc1cc2ncc(-c3ccc(C#N)c(N[C@H]4CNCC[C@@H]4F)n3)n2nc1C1CC1 [Compound 29a, 6-(6-cyclopropyl-7-methoxyimidazo[1,2-b]pyridazin-3-yl)-2-(((3S,4S)-4-fluoropiperidin-3-yl)amino)nicotinonitrile]	< 0.5	10		< 0.5	66	70	
